# Measured values taken from patent US12329733B2, “Acetyl-leucine or a pharmaceutically acceptable salt thereof for improved mobility and cognitive function” (INTRABIO LTD., priority 2016, dated 2025).
# “Also recorded” adds a separate entry of the source.
# Tests used:
# [1] = tested on: patients with gait disorder; test: quantitative gait analysis (“gait-rite”, video); assay type: in vivo, human
# [2] = tested on: patient with postural imbalance; test: timed Up and Go test (stance up-and-go test); assay type: in vivo, human; conditions: Example 6: 5 g/day for 1 month; baseline 25.4 sec
# Text: (§1) The patient was examined clinically by means of the following clinical assessments: maximal distance to walk; timed Up and Go test; Scale for the Assessment and Rating of Ataxia (SARA).
# [3] = tested on: patient with postural imbalance; test: Scale for the Assessment and Rating of Ataxia (SARA); assay type: in vivo, human; conditions: Example 6: 5 g/day for 1 month; baseline 6.5/40
# Text: as §1
# [4] = tested on: patient with postural imbalance; test: maximal distance to walk; assay type: in vivo, human; conditions: Example 6: person; 5 g/day (2/1.5/1.5 g) for 1 month; baseline 1 km
# Text: as §1
# Baseline (prior to commencement of treatment): Maximal distance to walk until the patient could not walk anymore because of fatigue was 1 km. The […] up-and-go test yielded 25.4 sec. SARA yielded 6.5/40. […] Tandem stance and gait was not possible to perform due to an increased fall risk. Mean timed 8-meter-walking test was 6.5 sec.
# [5] = tested on: subjects with no apparent dysfunction in cognitive ability or movement/balance; test: Psychomotor Vigilance Task (Mind Metrics App, 10 trials per test); assay type: in vivo, human; conditions: for Statistically significant improvement in PVT performance on treatment?: 5 g/day; for % change in Reaction Time: on-treatment vs baseline
# Text: For example, the Psychomotor Vigilance Task (PVT) is a sustained-attention, reaction-timed task that measures the speed with which subjects respond to a visual stimulus. The subject monitors a screen and presses the screen as quickly as possible upon the appearance of visual stimuli. The visual stimuli will then disappear and reappear (at irregular time intervals) e.g., 10 times over the course of the test, with the subject touching the screen as quickly as possible upon each reappearance. Test performance is quantified from an average of the e.g. 10 reaction times. The subject's reaction speed and alertness was assessed using the Mind Metrics App (Psychomotor Vigilance Task, 10 trials per test). The Psychomotor Vigilance Task (PVT) is a sustained-attention, reaction-timed task that measures the speed with which subjects respond to a visual stimulus. The subject is required to monitor a screen and press the screen as quickly as possible upon the appearance of visual stimuli. The visual stimuli will then disappear and reappear (at irregular time intervals) 10 times over the course of the test, with the subject touching the screen as quickly as possible upon each reappearance. Test performance is quantified from an average of the 10 reaction times. […] The subject was assessed for 2 weeks prior to taking acetyl-leucine, which constitutes the baseline period.
# [6] = tested on: subjects with no apparent dysfunction in cognitive ability or movement/balance; test: balancing ability (eyes closed, non-dominant foot lifted, timed); assay type: in vivo, human
# Method: Due to reported improvement in balance on treatment we measured balancing ability at the end of the treatment period and at the end of the washout period. This assessment required the subject to close their eyes and lift their non-dominant foot around 6 inches off the ground. The subject was then timed to see how long they could remain upright and without significant wobbles. This was repeated three times, and the values averaged. […] This assessment required the subject to close their eyes and lift their non-dominant foot around 6 inches off the ground. The subject was then timed to see how long they could remain upright and without significant wobbles. This was repeated three times, and the values averaged. We measured balancing ability at the end of the treatment period and at the end of the washout period. This assessment required the subject to close their eyes and lift their non-dominant foot around 6 inches off the ground. The subject was then timed to see how long they could remain upright and without significant wobbles. This was repeated three times, and the values averaged.
# subjects / patients = test: adverse effects / tolerability; assay type: in vivo, human; conditions: for tolerability: 3 g/day one week then 5 g/day; for Adverse Effects: 5 g/day
# vertigo = conditions: clinical results reported by various authors; cited from earlier work
# [7] = tested on: patients with Niemann-Pick type C; conditions: 12 patients, ref (7); cited from earlier work
smiles,measurement,setting,value
CC(=O)NC(CC(C)C)C(=O)O (racemic) [acetyl-DL-leucine],video analysis of gait,[1]; Example 4: 3 weeks after beginning treatment,now even able to run
same,Coefficient of variation (CV) of stride time: CV = (standard deviation/mean) × 100,"[1]; Example 4: after 3 weeks' treatment, before treatment 1.6",1.8
same,Spreading width (distance between the heel center of one footprint to the line of movement of the other foot),"[1]; Example 4: after 3 weeks' treatment, before treatment 9.3",8.1 cm
same,% of the time of two periods in the gait cycle in which both feet at the same time are in contact with the ground,"[1]; Example 4: after 3 weeks' treatment, before treatment 27.2",25.5%
same,Cadence,"[1]; Example 4: after 3 weeks' treatment, before treatment 92",100 steps/minute
same,Step cycle length (distance between two consecutive contacts of a foot on the ground),"[1]; Example 4: after 3 weeks' treatment, before treatment 116",116 cm
same,Maximum walking speed (maximal gait velocity),"[1]; Example 4: after 3 weeks' treatment, before treatment 141",157 cm/s
same,Natural walking speed (self-chosen gait velocity),"[1]; Example 4: person, after 3 weeks' treatment, before treatment 88",96 cm/s
same,self-chosen gait velocity,"[1]; Example 5: Day 42, 3 gram per day, from 55 cm/sec at Day 0",62 cm/s
same,maximal gait velocity,"[1]; Example 5: Day 42, 3 gram per day, from 84 cm/sec at Day 0",130 cm/s
same,stance up-and-go test,[2],21.2 s
same,SARA,[3],2 /40
same,Maximal distance to walk,[4],1.5 km
same,Statistically significant improvement in PVT performance on treatment?,"[5]; Example 7: 66 M, p<0.0001",significant improvement in Psychomotor Vigilance Task performance
same,Statistically significant improvement in PVT performance on treatment?,"[5]; Example 7: 66 M, p<0.0001, listed as acetyl-leucine",Yes
same,% change in Reaction Time,[5]; Example 7: 66 M,−30.86%
same,Statistically significant improvement in PVT performance on treatment?,"[5]; Example 8: 29 M, p<0.05",small but statistically significant improvement
same,Statistically significant improvement in PVT performance on treatment?,"[5]; Example 8: 29 M, p<0.05, listed as acetyl-leucine",Yes
same,% change in Reaction Time,[5]; Example 8: 29 M,−3.593%
same,Statistically significant improvement in PVT performance on treatment?,[5]; Example 9: 55 F,not associated with significant changes
same,Statistically significant improvement in PVT performance on treatment?,"[5]; Example 9: 55 F, listed as acetyl-leucine",No
same,% change in Reaction Time,[5]; Example 9: 55 F,1.408%
same,Statistically significant improvement in PVT performance on treatment?,[5]; Example 10: […],"small, non-statistically significant decline"
same,Statistically significant improvement in PVT performance on treatment?,"[5]; Example 10: […], listed as acetyl-leucine",No
same,% change in Reaction Time,[5]; Example 10: […],8.13%
same,Statistically significant improvement in PVT performance on treatment?,"[5]; Example 11: 53 M, p<0.01",statistically significant improvements
same,Statistically significant improvement in PVT performance on treatment?,"[5]; Example 11: 53 M, p<0.01, listed as acetyl-leucine",Yes
same,% change in Reaction Time,[5]; Example 11: 53 M,−10.24%
same,Statistically significant improvement in PVT performance on treatment?,"[5]; Example 12: 48 F, p<0.001",statistically significant improvements
same,Statistically significant improvement in PVT performance on treatment?,"[5]; Example 12: 48 F, p<0.001, listed as acetyl-leucine",Yes
same,% change in Reaction Time,[5]; Example 12: 48 F,−7.474%
same,time able to remain balanced (average of 3 tests),"[6]; Example 7: 66 M, end of washout period",4.01 s
same,time able to remain balanced (average of 3 tests),"[6]; Example 7: 66 M, last day of treatment period",7.27 s
same,time able to remain balanced (average of 3 tests),"[6]; Example 9: 55 F, end of washout period",8 s
same,time able to remain balanced (average of 3 tests),"[6]; Example 9: 55 F, last day of treatment period",12 s
same,time able to remain balanced (average of 3 tests),"[6]; Example 11: 53 M, end of washout period",3.1 s
same,time able to remain balanced (average of 3 tests),"[6]; Example 11: 53 M, last day of treatment period",7.9 s
same,side effects,"subjects / patients; Example 1: person, 4.5 g per day, over eighteen months",no side effects
same,tolerability,subjects / patients; Example 3: person,well tolerated
same,tolerability,subjects / patients; Example 4: person,very well tolerated
same,side effects,subjects / patients; Example 6: 2 g/1.5 g/1.5 g per day dosage regimen,Sleepiness
same,side effects after dose reduction,"subjects / patients; Example 6: reduced to 1 g/1 g/1 g daily after 1 month, listed as Tanganil®",cease in these side-effect symptoms; also recorded: have not returned
same,Adverse Effects,"subjects / patients; Example 7: 66 M, first week on medication",mild dizziness/lightheadedness on one occasion
same,Adverse Effects,"subjects / patients; Example 8: 29 M, 4 weeks",None reported
same,Adverse Effects,"subjects / patients; Example 9: 55 F, 4 weeks",None reported
same,Adverse Effects,"subjects / patients; Example 10: 50 M, 2 weeks",None reported
same,Adverse Effects,"subjects / patients; Example 11: 53 M, 4 weeks",None reported
same,Adverse Effects,"subjects / patients; Example 12: 48 F, 4 weeks",None reported
same,cases with improvement in vertigo symptomology,vertigo,more than 95%
same,ataxic symptoms,[7],improvement in ataxic symptoms
